These results are taken from US6506876B1, “LTA4 hydrolase inhibitor pharmaceutical compositions and methods of use” (G.D. Searle & Co., priority 1994, dated 2003).

Counter-ions that a name gives are not always drawn. Like-named read-outs stand apart in the source and are kept apart here.

Experiment [1] has as its target T1, recombinant human LTA4 hydrolase (rhLTA4H) (Homo sapiens, UniProt P09960).
T1 sequence (P09960 1-611): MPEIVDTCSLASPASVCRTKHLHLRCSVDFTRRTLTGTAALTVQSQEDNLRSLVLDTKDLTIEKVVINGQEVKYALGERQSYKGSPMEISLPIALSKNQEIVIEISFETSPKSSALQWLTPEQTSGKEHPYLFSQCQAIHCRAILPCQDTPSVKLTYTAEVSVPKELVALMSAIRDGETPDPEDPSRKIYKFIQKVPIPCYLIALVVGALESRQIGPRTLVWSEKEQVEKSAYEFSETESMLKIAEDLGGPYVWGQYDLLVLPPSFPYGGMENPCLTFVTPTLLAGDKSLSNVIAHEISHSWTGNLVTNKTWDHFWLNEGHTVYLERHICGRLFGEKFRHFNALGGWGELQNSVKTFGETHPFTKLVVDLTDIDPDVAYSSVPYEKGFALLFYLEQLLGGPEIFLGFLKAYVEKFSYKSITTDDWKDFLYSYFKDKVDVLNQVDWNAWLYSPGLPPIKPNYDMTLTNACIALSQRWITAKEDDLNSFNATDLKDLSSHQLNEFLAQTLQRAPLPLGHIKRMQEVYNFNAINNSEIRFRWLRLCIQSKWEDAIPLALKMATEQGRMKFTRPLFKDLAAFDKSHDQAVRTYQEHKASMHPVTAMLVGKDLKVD
The experiment in a line: Recombinant human LTA4 hydrolase assay for LTA4 hydrolase inhibitor activity. Particulars: Recombinant Human LTA4 Hydrolase Assay IC50 LTA4H.

The subject of experiment [2] is LTB4 production in human whole blood (LTA4 hydrolase). In words: LTB4 production by calcium ionophore stimulated human blood. The format is cell-based. Particulars: read-out: Inhibition of Calcium Ionophore-Induced LTB4 Production in Human Blood IC50 HWB. How it is done: LTB4 and Thromboxane Production by Calcium Ionophore Stimulated Human Blood for LTA4 Hydrolase Inhibitor Activity
One or more concentrations of the leukotriene A4 hydrolase inhibitor compounds being tested were prepared (diluted in DMSO) and 2 μl added and gently mixed with the diluted whole blood. After incubating for 15 minutes at 37° C. in a humidified incubator, calcium ionophore A23187 (Sigma Chemical Co., St. Louis, Mo.) was added to a final concentration of 20 mcg/ml and the incubation continued under the same conditions for an additional 10 minutes to allow LTB4 formation. The reaction was terminated by centrifugation (833 g, 10 minutes at 4° C.) and supernatant were analyzed for LTB4 and thromboxane by commercially available enzyme-linked immunoassays (Caymen Chemical Co., Ann Arbor, Mich.) according to the manufacturer's instructions. The IC50 of each test compound was determined from the amount of inhibition of LTB4 production as compared to an essentially identical assay in which no inhibitor compound was present.

Experiment [3] concerns LTB4 production in mouse blood (LTA4 hydrolase). The experiment in a line: Ex vivo LTB4 production by calcium ionophore stimulated mouse blood after oral dosing. It counts as in vivo. As for the experimental part: Ex Vivo LTB4 and Thromboxane Production by Calcium Ionophore Stimulated Mouse Blood for LTA4 Hydrolase Inhibitor Activity
Leukotriene A4 hydrolase inhibitor compounds of the present invention were diluted to a predetermined concentration in phosphate buffered saline containing 2% DMSO and 1% Tween 80. The compounds were administered by oral gavage to adult male outbred mice weighing approximately 20-30 gm at a dose of 10 mg/kg body weight. (Compounds given at a dose of 50 mg/kg body weight are designtated in following Table by the symbol, *.) Sixty (60) minutes after administration of an LTA4 inhibitor compound of the invention, blood was collected (into heparin-containing tubes) from the retroorbital sinus. […] The mixture was incubated for 10 minutes at 37° C. in a humidified incubator. The reaction was terminated by centrifugation (833 g, 10 minutes at 4° C.). Supernatants were analyzed for LTB4 and thromboxane by commercially available enzyme-linked immunoassays (Caymen Chemical Co., Ann Arbor, Mich.] in accordance with the manufacturer's instructions. The percent inhibition was determined by comparison to animals treated identically except that the solution admininstered by oral gavage was devoid of inhibitor compound.

Setting [4] is: Homo sapiens, human whole blood, A23187.
Where [5] appears, read: mouse, oral gavage, 1 hour after administration of 10 mg/kg; read-out: Murine Ex Vivo LTB4 Inhibition % I LTB4.
The mark [6] stands for this setting: Mus musculus, po, 1 h, read-out: Murine Ex Vivo LTB4 Inhibition % I LTB4.
Where [7] appears, read: Mus musculus, po, 1 h; read-out: Murine Ex Vivo LTB4 Inhibition % I LTB4.

For the molecule `c1ccc(Cc2ccc3c(c2)CC(Cn2cnc4ccncc42)O3)cc1` (centres unmarked) [358 A], the IC50 (as a rule, the concentration that inhibits the measured activity by half) in experiment [1] (recombinant hLTA4H) stood at 1550 nM; in experiment [2] (human whole blood, A23187) it was 152 nM.
For the molecule `c1ccc(Cc2cnc(OCCN3CCCC3)s2)cc1` [Example 76], in experiment [2] (setting [4]), the IC50 is 3500 nM.
The same measure, in the same setting: the value for `Clc1cc(Cc2ccccc2)ccc1OCCN1CCCC1` [Example 113] was 2010 nM.
Still for that read-out and setting: as for `Fc1cc(Cc2ccccc2)ccc1OCCN1CCCC1` [Example 115], the figure is 190 nM; as for `COc1cccc(Cc2ccc(OCCN3CCCC3)cc2)c1` [Example 127], 2480 nM.
As for `COC(=O)[C@@H]1CCCN1CCOc1ccc(Cc2ccccc2)cc1` [Example 225, Methyl 1-[2-[4-(Phenylmethyl)phenoxy]ethyl]-2S-pyrrolidine-2-carboxylate, monohydrochloride, hydrate], the IC50 in experiment [2] (Homo sapiens) turned out to be 1860 nM.
Regarding `NC(=O)C1CCN(CC2CCc3cc(Cc4ccccc4)ccc3O2)CC1` (centres unmarked) [Example 293], the inhibition in vivo at 10 mg/kg in experiment [3] (setting [5]) was 93%. Also, the IC50 in experiment [1] (recombinant hLTA4H) turned out to be 480 nM.
On to `CC(=O)N1CCN(CC2Cc3cc(Cc4ccccc4)ccc3O2)CC1` (centres unmarked) [Example 294], for which the inhibition in vivo at 10 mg/kg in experiment [3] (setting [5]) came to 57%. Besides, the IC50 in experiment [1] (recombinant hLTA4H) stood at 110 nM.
The like results for `CNC(=O)C1CCN(CC2Cc3cc(Cc4ccccc4)ccc3O2)CC1` (centres unmarked) [Example 295] were, in that order, 80% and 440 nM.
As for `CNC(=O)C1CCN(CC2Cc3cc(Oc4ccccc4)ccc3O2)CC1` (centres unmarked) [Example 296], in experiment [3] (setting [5]), the inhibition in vivo at 10 mg/kg was determined as 72%. Also, the IC50 in experiment [1] (recombinant hLTA4H) came to 710 nM.
The like results for `CCOC(=O)CC1CCN(CCOc2ccc(Cc3ccccc3)cc2)CC1` [Example 301] were, in that order, 81% and 4500 nM.
Turning to `COC(=O)C1(O)CCN(CCOc2ccc(Cc3ccccc3)cc2)CC1` [Example 305], in experiment [3] (setting [5]), the inhibition in vivo at 10 mg/kg is 42%. In addition, the IC50 in experiment [1] (recombinant hLTA4H) is 10 nM.
On the same counts, the results for `CCOC(=O)C1CCN(CCOc2ccc(Cc3cccc(F)c3)cc2)CC1` [Example 309] are 96% and 2500 nM.
As to `CCOC(=O)C1CCN(CCOc2ccc(Cc3cccs3)cc2)CC1` [Example 310], the inhibition in vivo at 10 mg/kg in experiment [3] (setting [5]) came to 96%. Besides, the IC50 in experiment [1] (recombinant hLTA4H) stood at 930 nM.
In the case of `CC(=O)N[C@H]1C[C@@H](C)N(CCOc2ccc(Cc3ccccc3)cc2)[C@@H](C)C1` [Example 315], the inhibition in vivo at 10 mg/kg in experiment [3] (setting [5]) came out at 53%. Moreover, in experiment [1] (recombinant hLTA4H), the IC50 is 163 nM.
On the same counts, the results for `C[C@@H]1C[C@H](C(N)=O)C[C@H](C)N1CCOc1ccc(Cc2ccccc2)cc1` [Example 316] are 85% and 50 nM.
`COC(=O)CCN(C)CCCOc1ccc(Cc2ccsc2)cc1` [Example 330]: in experiment [3] (setting [6]), the inhibition in vivo at 10 mg/kg is 95%. Besides, the half-maximal inhibitory concentration (IC50) in experiment [1] (recombinant hLTA4H) was 900 nM.
With `NC(=O)N1CCN(CC2Cc3cc(Cc4ccccc4)ccc3O2)CC1` (centres unmarked) [Example 337], in experiment [3] (setting [5]), the inhibition in vivo at 10 mg/kg amounted to 82%. For the same molecule, the IC50 in experiment [1] (recombinant hLTA4H) worked out at 360 nM.
The like results for `c1ccc(Cc2ccc(OCCn3cnc4ccccc43)cc2)cc1` [Example 339] were, in that order, 47% and 2000 nM.
Regarding `[O-][n+]1cccc2c1ncn2CCOc1ccc(Cc2ccccc2)cc1` [Example 363], the inhibition in vivo at 10 mg/kg in experiment [3] (setting [5]) is 62%. For the same molecule, the IC50 in experiment [1] (recombinant hLTA4H) came out at 17 nM.
As to `[O-][n+]1ccc2c(c1)ncn2CCOc1ccc(Cc2ccccc2)cc1` [Example 365], the inhibition in vivo at 10 mg/kg in experiment [3] (setting [6]) stood at 72%. Further, in experiment [1], the IC50 was found to be 82 nM.
Take `NC(=O)C1CCN(CCOc2ccc(Cc3ccccc3)s2)CC1` [Example 369]: the inhibition in vivo at 10 mg/kg in experiment [3] (setting [5]) came to 100%. In addition, the IC50 in experiment [1] (recombinant hLTA4H) was 42000 nM.
Regarding `CCOC(=O)C1CCN(CCOc2ccc(Cc3ccccc3)s2)CC1` [Example 370], the inhibition in vivo at 10 mg/kg in experiment [3] (setting [7]) amounted to 96%. Besides, the IC50 in experiment [1] (recombinant hLTA4H) came out at 59000 nM.
Turning to `COC(=O)CCN(C)CCCOc1ccc(Cc2ccccc2)s1` [Example 375], the inhibition in vivo at 10 mg/kg in experiment [3] (setting [7]) came to 67%. Moreover, the IC50 in experiment [1] (recombinant hLTA4H) came to 900 nM.
As for `OCC1CCCN1CCOc1ccc(Cc2ccccc2)cc1` (centres unmarked) [Example 385], the inhibition in vivo at 10 mg/kg in experiment [3] (setting [5]) stood at 32%. Also, the IC50 in experiment [1] (recombinant hLTA4H) amounted to 140 nM.
Consider `OC1CCN(CCOc2ccc(Cc3ccccc3)cc2)C1` (centres unmarked) [Example 386], for which the inhibition in vivo at 10 mg/kg in experiment [3] (setting [6]) turned out to be 51%. In addition, the concentration for half-maximal inhibition (IC50) in experiment [1] (recombinant hLTA4H) is 32 nM.
In the case of `CC1CCC(C)N1CCOc1ccc(Cc2ccccc2)cc1` (centres unmarked) [Example 399], the inhibition in vivo at 10 mg/kg in experiment [3] (setting [5]) was found to be 30%. The IC50 in experiment [1] (recombinant hLTA4H) amounted to 100 nM.
On the same counts, the results for `CC(CN1CCCCCC1)Oc1ccc(Cc2ccccc2)cc1` (centres unmarked) [Example 404] are 52% and 1750 nM.
The like results for `CCC(CN1CCCC1)Oc1ccc(Cc2ccccc2)cc1` (centres unmarked) [Example 405] were, in that order, 49% and 420 nM.
The like results for `c1ccc(Cc2ccc(OC(Cc3ccccc3)CN3CCCC3)cc2)cc1` (centres unmarked) [Example 406] were, in that order, 46% and 500 nM.
`C#CC(CC(=O)OCC)NCCCOc1ccc(Cc2ccccc2)cc1` (centres unmarked) [Example 407]: the inhibition in vivo at 10 mg/kg in experiment [3] (setting [5]) came to 0%. The IC50 in experiment [1] (recombinant hLTA4H) was determined as 20000 nM.
As to `COC(=O)CCN(C)CCCOc1ccc(Cc2ccccc2)cc1` [Example 413], the inhibition in vivo at 10 mg/kg in experiment [3] (setting [5]) stood at 86%. In experiment [1] (recombinant hLTA4H), the IC50 is 43 nM.
The like results for `CC(C)(O)CCNCCCOc1ccc(Cc2ccccc2)cc1` [Example 416] were, in that order, 31% and 410 nM.
On the same counts, the results for `NNC(=O)C1CCN(CCOc2ccc(Cc3ccccc3)cc2)CC1` [Example 419] are 90% and 47 nM.
On the same counts, the results for `CNC(=O)CCNCCCOc1ccc(Cc2ccccc2)cc1` [Example 422] are 37% and 100 nM.
Consider `NC(=O)C1(O)CCN(CCOc2ccc(Cc3ccccc3)cc2)CC1` [Example 427], for which the inhibition in vivo at 10 mg/kg in experiment [3] (setting [5]) was 68%. Moreover, in experiment [1] (recombinant hLTA4H), the IC50 came out at 350 nM.
On the same counts, the results for `O=C(Nc1ccccc1)OC[C@@H]1CCCN1CCOc1ccc(Cc2ccccc2)cc1` [Example 428] are 2% and 500 nM.
With `O=C(O)C1CCN(CCOc2ccc(Cc3ccccc3)cc2)CC1` [Example 429], the inhibition in vivo at 10 mg/kg in experiment [3] (setting [7]) was 80%. The IC50 in experiment [1] (recombinant hLTA4H) worked out at 250 nM.
As for `CC(CN(C)CCCOc1ccc(Cc2ccccc2)cc1)C(=O)O` (centres unmarked) [Example 432], in experiment [3] (setting [5]), the inhibition in vivo at 10 mg/kg was determined as 85%. The IC50 in experiment [1] (recombinant hLTA4H) came out at 140 nM.
Turning to `N/C(=N\O)C1CCN(CC2Cc3cc(Cc4ccccc4)ccc3O2)CC1` (centres unmarked) [Example 446], the inhibition in vivo at 10 mg/kg in experiment [3] (setting [5]) worked out at 70%. Besides, the IC50 in experiment [1] (recombinant hLTA4H) worked out at 35 nM.
On the same counts, the results for `CC1CC(c2nnn[nH]2)CCN1CCOc1ccc(Cc2ccccc2)cc1` (centres unmarked) [Example 451] are 90% and 6 nM.
On the same counts, the results for `NC1CCN(CCOc2ccc(Cc3ccccc3)cc2)CC1` [Example 455] are 67% and 11 nM.
The like results for `c1ccc(Cc2ccc(OCCN3CC4CCC3C4)cc2)cc1` (centres unmarked) [Example 499] were, in that order, 60% and 240 nM.
Take `c1ccc(Cc2ccc(OCCN3CC4CCC3CC4)cc2)cc1` [Example 500]: in experiment [3] (setting [5]), the inhibition in vivo at 10 mg/kg was determined as 53%. For the same molecule, the IC50 in experiment [1] (recombinant hLTA4H) was 140 nM.
